Test results published in patent US11000033B2, “Ketone or oxime compound, and herbicide” (NISSAN CHEMICAL CORPORATION, priority 2014, dated 2021).

Assays:
Type in all cases: in vivo
Scirpus juncoides = assay: Test Example 1: herbicidal activity, application before weed generation in submerged conditions (symbol B); details: application herbicide amount 320 g/ha
Summary of the method: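 Compound emulsion was diluted to a set herbicide amount and applied to the water surface on the sowing day, into submerged (4 cm) alluvial-soil pots sown with mixed weed seeds and transplanted 2.5-leaf rice. Pots were held in a 25–30 °C greenhouse, and weeds were scored 0–5 by herbicidal ratio after 3 weeks.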

Monochoria vaginalis = assay: Test Example 2: herbicidal activity, application during weed generation in submerged conditions (symbol C); details: Table 23; application herbicide amount 320 g/ha; grade 0-5 by criteria of Test Example 1
Summary of the method: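 Seeds sown in flooded alluvial soil (4 cm water) were grown in a 25-30° C greenhouse. At the one- to two-leaf stage, diluted emulsion of compound was applied to the water surface at a predetermined rate. Effect was scored 3 weeks later.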

Setaria viridis [1] = assay: Test Example 4: herbicidal effect by soil treatment (symbol G); details: application herbicide amount 320 g/ha
Summary of the method: (§1)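 Seeds were sown in sterilized diluvial soil, covered with about 1.5 cm of soil, and the soil surface was sprayed with a water-diluted emulsion of the compound at a predetermined rate. Plants grew in a greenhouse at 25° C. to 30° C.; effects were scored visually 3 weeks after application.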

Avena fatua [2] = assay: Test Example 4: herbicidal effect by soil treatment (symbol I); details: application herbicide amount 320 g/ha
Summary of the method: as §1

Apera spica-venti [3] = assay: Test Example 4: herbicidal effect by soil treatment (symbol L); details: application herbicide amount 320 g/ha
Summary of the method: as §1

rice = assay: Test Example 4: effect on crop by soil treatment (symbol b); details: application herbicide amount 320 g/ha
Summary of the method: (§2)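 The test used sterilized diluvial soil. Seed was set down in spots and overlaid with about 1.5 cm of soil before growth in a greenhouse kept at 25° C. to 30° C.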

rapeseed [4] = assay: Test Example 4: effect on crop by soil treatment (symbol g); details: application herbicide amount 320 g/ha
Summary of the method: as §2

Digitaria ciliaris = assay: Test Example 5: herbicidal effect by foliage application, plastic box (symbol F); details: 320 g/ha, 3 weeks after application
Summary of the method: (§3)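 Seeds were sown in sterilized diluvial soil, covered with about 1.5 cm of soil and grown 14 days in a greenhouse at 25° C. to 30° C. An emulsifiable formulation diluted in water to a set rate was sprayed over foliage, and injury was scored 3 weeks later.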

Setaria viridis [5] = assay: Test Example 5: herbicidal effect by foliage application, plastic box (symbol G); details: 320 g/ha, 3 weeks after application
Summary of the method: as §3

[6] = tested on: Echinochloa crus-galli var. crus-galli; assay: Test Example 5: herbicidal effect by foliage application, plastic box (symbol H); details: 320 g/ha, 3 weeks after application
Summary of the method: as §3

Avena fatua [7] = assay: Test Example 5: herbicidal effect by foliage application, plastic box (symbol I); details: 320 g/ha, 3 weeks after application
Summary of the method: as §3

Apera spica-venti [8] = assay: Test Example 5: herbicidal effect by foliage application, plastic box (symbol L); details: 320 g/ha, 3 weeks after application
Summary of the method: as §3

Abutilon theophrasti = assay: Test Example 5: herbicidal effect by foliage application, plastic box (symbol M); details: 320 g/ha, 3 weeks after application
Summary of the method: as §3

Chenopodium album = assay: Test Example 5: herbicidal effect by foliage application, plastic box (symbol O); details: 320 g/ha, 3 weeks after application
Summary of the method: as §3

soybean = assay: Test Example 5: effect on crop by foliage application, plastic box (symbol d); details: 320 g/ha, 3 weeks after application
Summary of the method: (§4)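 Crop and weed seeds sown in spots in sterilized diluvial soil in plastic boxes and covered with about 1.5 cm soil. Plants raised in a greenhouse at 25° C. to 30° C. for foliar application.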

rapeseed [9] = assay: Test Example 5: effect on crop by foliage application, plastic box (symbol g); details: 320 g/ha, 3 weeks after application
Summary of the method: as §4

With `CC(CC1CC(O)=C(c2c(C)cc(C)cc2C)C1=O)=NOCC1CC1` (stereo not shown) [1-024] the “Herbicidal effect grade, B: Scirpus juncoides” value (“Herbicidal effect grade, B” for short) (Scirpus juncoides) was 5 (Herbicidal ratio of 90% or more (almost completely withered)), the “Herbicidal effect grade, C: Monochoria vaginalis” value (“Herbicidal effect grade, C” for short) (Monochoria vaginalis) was 3 (Herbicidal ratio of 40% or higher and lower than 70%) and the “G (Setaria viridis) herbicidal effect grade” value (Setaria viridis [1]) was 3 (Herbicidal ratio of 40% or higher and lower than 70%). The “I (Avena fatua) herbicidal effect grade” value (Avena fatua [2]) was 4 (Herbicidal ratio of 70% or higher and lower than 90%), the “L (Apera spica-venti) herbicidal effect grade” value (Apera spica-venti [3]) was 5 (Herbicidal ratio of 90% or more (almost completely withered)) and the “b (directly sowed rice plant) effect on crop grade” value (rice) was 5 (Herbicidal ratio of 90% or more (almost completely withered)). The “g (rapeseed) effect on crop grade” value (rapeseed [4]) was 3 (Herbicidal ratio of 40% or higher and lower than 70%), the “F: Digitaria ciliaris, herbicidal effect grade” value (“F: Digitaria ciliaris” for short) (Digitaria ciliaris) was 5 (Herbicidal ratio of 90% or more (almost completely withered)) and the “G: Setaria viridis, herbicidal effect grade” value (“G: Setaria viridis” below) (Setaria viridis [5]) was 5 (Herbicidal ratio of 90% or more (almost completely withered)). The “H: Echinochloa crus-galli var. crus-galli, herbicidal effect grade” value [6] was 5 (Herbicidal ratio of 90% or more (almost completely withered)), the “I: Avena fatua, herbicidal effect grade” value (Avena fatua [7]) was 5 (Herbicidal ratio of 90% or more (almost completely withered)) and the “L: Apera spica-venti, herbicidal effect grade” value (“L: Apera spica-venti” below) (Apera spica-venti [8]) was 5 (Herbicidal ratio of 90% or more (almost completely withered)). The “M: Abutilon theophrasti, herbicidal effect grade” value (from here on “M: Abutilon theophrasti”) (Abutilon theophrasti) was 1 (Herbicidal ratio of 5% or higher and lower than 20%), the “O: Chenopodium album, herbicidal effect grade” value (from here on “O: Chenopodium album”) (Chenopodium album) was 1 (Herbicidal ratio of 5% or higher and lower than 20%) and the “d: soybean, effect on crop grade” value (soybean) was 2 (Herbicidal ratio of 20% or higher and lower than 40%). The “g: rapeseed, effect on crop grade” value (rapeseed [9]) was 4 (Herbicidal ratio of 70% or higher and lower than 90%).
With `CC(CC1CC(O)=C(c2c(C)cc(C)cc2C)C1=O)=NOCc1ccccc1F` (stereo not shown) [1-026] the “Herbicidal effect grade, B” value (Scirpus juncoides) was 5 (Herbicidal ratio of 90% or more (almost completely withered)), the “Herbicidal effect grade, C” value (Monochoria vaginalis) was 3 (Herbicidal ratio of 40% or higher and lower than 70%) and the “G (Setaria viridis) herbicidal effect grade” value (Setaria viridis [1]) was 5 (Herbicidal ratio of 90% or more (almost completely withered)). The “I (Avena fatua) herbicidal effect grade” value (Avena fatua [2]) was 3 (Herbicidal ratio of 40% or higher and lower than 70%), the “L (Apera spica-venti) herbicidal effect grade” value (Apera spica-venti [3]) was 5 (Herbicidal ratio of 90% or more (almost completely withered)) and the “b (directly sowed rice plant) effect on crop grade” value (rice) was 4 (Herbicidal ratio of 70% or higher and lower than 90%). For the same compound, the “g (rapeseed) effect on crop grade” value (rapeseed [4]) was 3 (Herbicidal ratio of 40% or higher and lower than 70%), the “F: Digitaria ciliaris” value (Digitaria ciliaris) was 5 (Herbicidal ratio of 90% or more (almost completely withered)) and the “G: Setaria viridis” value (Setaria viridis [5]) was 5 (Herbicidal ratio of 90% or more (almost completely withered)). For the same compound, the “H: Echinochloa crus-galli var. crus-galli, herbicidal effect grade” value [6] was 4 (Herbicidal ratio of 70% or higher and lower than 90%), the “I: Avena fatua, herbicidal effect grade” value (Avena fatua [7]) was 1 (Herbicidal ratio of 5% or higher and lower than 20%) and the “L: Apera spica-venti” value (Apera spica-venti [8]) was 5 (Herbicidal ratio of 90% or more (almost completely withered)). For the same compound, the “M: Abutilon theophrasti” value (Abutilon theophrasti) was 0 (Herbicidal ratio of 5% or lower (almost no effect)), the “O: Chenopodium album” value (Chenopodium album) was 3 (Herbicidal ratio of 40% or higher and lower than 70%) and the “d: soybean, effect on crop grade” value (soybean) was 0 (Herbicidal ratio of 5% or lower (almost no effect)). The “g: rapeseed, effect on crop grade” value (rapeseed [9]) was 4 (Herbicidal ratio of 70% or higher and lower than 90%).
With `CC(CC1CC(O)=C(c2c(C)cc(C)cc2C)C1=O)=NOCC(C)O` (stereo not shown) [1-027] the “Herbicidal effect grade, B” value (Scirpus juncoides) was 3 (Herbicidal ratio of 40% or higher and lower than 70%), the “Herbicidal effect grade, C” value (Monochoria vaginalis) was 0 (Herbicidal ratio of 5% or lower (almost no effect)) and the “G (Setaria viridis) herbicidal effect grade” value (Setaria viridis [1]) was 3 (Herbicidal ratio of 40% or higher and lower than 70%). The “I (Avena fatua) herbicidal effect grade” value (Avena fatua [2]) was 4 (Herbicidal ratio of 70% or higher and lower than 90%), the “L (Apera spica-venti) herbicidal effect grade” value (Apera spica-venti [3]) was 5 (Herbicidal ratio of 90% or more (almost completely withered)) and the “b (directly sowed rice plant) effect on crop grade” value (rice) was 5 (Herbicidal ratio of 90% or more (almost completely withered)). The “g (rapeseed) effect on crop grade” value (rapeseed [4]) was 4 (Herbicidal ratio of 70% or higher and lower than 90%), the “F: Digitaria ciliaris” value (Digitaria ciliaris) was 5 (Herbicidal ratio of 90% or more (almost completely withered)) and the “G: Setaria viridis” value (Setaria viridis [5]) was 5 (Herbicidal ratio of 90% or more (almost completely withered)). For the same compound, the “H: Echinochloa crus-galli var. crus-galli, herbicidal effect grade” value [6] was 5 (Herbicidal ratio of 90% or more (almost completely withered)), the “I: Avena fatua, herbicidal effect grade” value (Avena fatua [7]) was 5 (Herbicidal ratio of 90% or more (almost completely withered)) and the “L: Apera spica-venti” value (Apera spica-venti [8]) was 5 (Herbicidal ratio of 90% or more (almost completely withered)). For the same compound, the “M: Abutilon theophrasti” value (Abutilon theophrasti) was 2 (Herbicidal ratio of 20% or higher and lower than 40%), the “O: Chenopodium album” value (Chenopodium album) was 1 (Herbicidal ratio of 5% or higher and lower than 20%) and the “d: soybean, effect on crop grade” value (soybean) was 3 (Herbicidal ratio of 40% or higher and lower than 70%). The “g: rapeseed, effect on crop grade” value (rapeseed [9]) was 4 (Herbicidal ratio of 70% or higher and lower than 90%).
In the case of `CC(CC1CC(O)=C(c2c(C)cc(C)cc2C)C1=O)=NOCC(F)(F)F` (stereo not shown) [1-028], the “Herbicidal effect grade, B” value (Scirpus juncoides) is reported as 5 (Herbicidal ratio of 90% or more (almost completely withered)), the “Herbicidal effect grade, C” value (Monochoria vaginalis) is reported as 0 (Herbicidal ratio of 5% or lower (almost no effect)) and the “G (Setaria viridis) herbicidal effect grade” value (Setaria viridis [1]) is reported as 5 (Herbicidal ratio of 90% or more (almost completely withered)). For the same compound, the “I (Avena fatua) herbicidal effect grade” value (Avena fatua [2]) was 4 (Herbicidal ratio of 70% or higher and lower than 90%), the “L (Apera spica-venti) herbicidal effect grade” value (Apera spica-venti [3]) was 5 (Herbicidal ratio of 90% or more (almost completely withered)) and the “b (directly sowed rice plant) effect on crop grade” value (rice) was 5 (Herbicidal ratio of 90% or more (almost completely withered)). The “g (rapeseed) effect on crop grade” value (rapeseed [4]) was 4 (Herbicidal ratio of 70% or higher and lower than 90%), the “F: Digitaria ciliaris” value (Digitaria ciliaris) was 5 (Herbicidal ratio of 90% or more (almost completely withered)) and the “G: Setaria viridis” value (Setaria viridis [5]) was 5 (Herbicidal ratio of 90% or more (almost completely withered)). The “H: Echinochloa crus-galli var. crus-galli, herbicidal effect grade” value [6] was 5 (Herbicidal ratio of 90% or more (almost completely withered)), the “I: Avena fatua, herbicidal effect grade” value (Avena fatua [7]) was 4 (Herbicidal ratio of 70% or higher and lower than 90%) and the “L: Apera spica-venti” value (Apera spica-venti [8]) was 5 (Herbicidal ratio of 90% or more (almost completely withered)). The “M: Abutilon theophrasti” value (Abutilon theophrasti) was 3 (Herbicidal ratio of 40% or higher and lower than 70%), the “O: Chenopodium album” value (Chenopodium album) was 3 (Herbicidal ratio of 40% or higher and lower than 70%) and the “d: soybean, effect on crop grade” value (soybean) was 2 (Herbicidal ratio of 20% or higher and lower than 40%). For the same compound, the “g: rapeseed, effect on crop grade” value (rapeseed [9]) was 4 (Herbicidal ratio of 70% or higher and lower than 90%).
For `CON=C(C)CC1CC(OC(=O)C(C)(C)F)=C(c2c(C)cc(C)cc2C)C1=O` (stereo not shown) [1-039], the “Herbicidal effect grade, B” value (Scirpus juncoides) was 5 (Herbicidal ratio of 90% or more (almost completely withered)), the “Herbicidal effect grade, C” value (Monochoria vaginalis) was 3 (Herbicidal ratio of 40% or higher and lower than 70%) and the “G (Setaria viridis) herbicidal effect grade” value (Setaria viridis [1]) was 5 (Herbicidal ratio of 90% or more (almost completely withered)). The “I (Avena fatua) herbicidal effect grade” value (Avena fatua [2]) was 1 (Herbicidal ratio of 5% or higher and lower than 20%), the “L (Apera spica-venti) herbicidal effect grade” value (Apera spica-venti [3]) was 5 (Herbicidal ratio of 90% or more (almost completely withered)) and the “b (directly sowed rice plant) effect on crop grade” value (rice) was 5 (Herbicidal ratio of 90% or more (almost completely withered)). The “g (rapeseed) effect on crop grade” value (rapeseed [4]) was 4 (Herbicidal ratio of 70% or higher and lower than 90%), the “F: Digitaria ciliaris” value (Digitaria ciliaris) was 5 (Herbicidal ratio of 90% or more (almost completely withered)) and the “G: Setaria viridis” value (Setaria viridis [5]) was 5 (Herbicidal ratio of 90% or more (almost completely withered)). The “H: Echinochloa crus-galli var. crus-galli, herbicidal effect grade” value [6] was 5 (Herbicidal ratio of 90% or more (almost completely withered)), the “I: Avena fatua, herbicidal effect grade” value (Avena fatua [7]) was 5 (Herbicidal ratio of 90% or more (almost completely withered)) and the “L: Apera spica-venti” value (Apera spica-venti [8]) was 5 (Herbicidal ratio of 90% or more (almost completely withered)). The “M: Abutilon theophrasti” value (Abutilon theophrasti) was 4 (Herbicidal ratio of 70% or higher and lower than 90%), the “d: soybean, effect on crop grade” value (soybean) was 4 (Herbicidal ratio of 70% or higher and lower than 90%) and the “g: rapeseed, effect on crop grade” value (rapeseed [9]) was 4 (Herbicidal ratio of 70% or higher and lower than 90%).
